# From the supplement of paper PMC10307832
# Experiments:
# Experiment in all cases: relative viability (nuclei count vs DMSO), 5 days (fraction); higher = more cells survive
# [1] = compound: C/C(=N\NC(=S)N1CCC1)/C2=CC=CC=N2 + CC(C)C[C@H](NC(=O)[C@H](Cc1ccccc1)NC(=O)c1cnccn1)B(O)O [Bortezomib] (partner 0.002 µM)
# Procedure, shortened: (§1)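 Lung cancer cell lines in 1536-well plates were dosed by pin tool the day after seeding, either with one drug alone or with a fixed anchor-drug dose plus five library-drug doses (not always all listed) in √10 steps. After 5 days, cells were fixed and their nuclei stained in one step (final 0.05% Triton X-100, 1% formaldehyde, 1 ug/ml Hoechst), then counted on 4× images. Relative viability is the nuclei count in treated wells divided by that in vehicle wells. Values are medians of duplicate plates.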
# [2] = compound: C/C(=N\NC(=S)N1CCC1)/C2=CC=CC=N2 + CC1(C)CCC(c2ccc(Cl)cc2)=C(CN2CCN(c3ccc(C(=O)NS(=O)(=O)c4ccc(N[C@H](CCN5CCOCC5)CSc5ccccc5)c(S(=O)(=O)C(F)(F)F)c4)cc3)CC2)C1 [Navitoclax] (partner 0.5 µM)
# Procedure, shortened: as §1
# [3] = compound: C/C(=N\NC(=S)N1CCC1)/C2=CC=CC=N2 + CCNC(=O)c1noc(-c2cc(C(C)C)c(O)cc2O)c1-c1ccc(CN2CCOCC2)cc1 [Luminespib] (partner 0.01 µM)
# Procedure, shortened: as §1
# [4] = compound: C/C(=N\NC(=S)N1CCC1)/C2=CC=CC=N2 + Cc1nc(Nc2ncc(C(=O)Nc3c(C)cccc3Cl)s2)cc(N2CCN(CCO)CC2)n1 [Dasatinib] (partner 0.075 µM)
# Procedure, shortened: as §1
Cell Line,relative viability ([1]; first compound 0.05 µM),relative viability ([1]; first compound 0.1581 µM),relative viability ([1]; first compound 0.5 µM),relative viability ([1]; first compound 1.581 µM),relative viability ([1]; first compound 5 µM),relative viability ([2]; first compound 0.05 µM),relative viability ([2]; first compound 0.1581 µM),relative viability ([2]; first compound 0.5 µM),relative viability ([2]; first compound 1.581 µM),relative viability ([2]; first compound 5 µM),relative viability ([3]; first compound 0.05 µM),relative viability ([3]; first compound 0.1581 µM),relative viability ([3]; first compound 0.5 µM),relative viability ([3]; first compound 1.581 µM),relative viability ([3]; first compound 5 µM),relative viability ([4]; first compound 0.05 µM),relative viability ([4]; first compound 0.1581 µM),relative viability ([4]; first compound 0.5 µM),relative viability ([4]; first compound 1.581 µM),relative viability ([4]; first compound 5 µM)
NCI-H2126,0.364,0.244,0.223,0.201,0.186,0.328,0.828,0.265,0.281,0.27,0.201,0.201,0.198,0.178,0.225,0.185,0.18,0.179,0.163,0.187
NCI-H2228,0.169,0.295,0.161,0.119,0.179,0.181,0.132,0.13,0.117,0.123,0.168,0.119,0.129,–,0.158,0.133,0.121,0.135,–,0.0925
NCI-H2347,0.299,0.329,0.401,0.268,0.263,0.214,0.263,0.195,0.16,0.193,0.263,0.238,0.213,0.251,0.235,0.209,0.199,0.26,0.23,0.179
NCI-H2405,0.275,0.31,0.322,0.286,0.989,0.0935,0.0799,0.114,0.256,0.246,0.218,0.245,0.287,0.242,0.283,0.219,0.226,0.253,0.228,0.231
NCI-H3122,0.17,0.139,0.222,0.244,0.203,0.132,0.137,0.156,0.247,0.216,0.0803,0.063,0.0978,0.134,0.11,0.0675,0.0912,0.0839,0.11,0.11
PC-3 [JPC-3],0.377,0.318,0.312,0.292,0.215,0.42,0.855,0.281,0.253,0.285,0.354,0.415,0.257,0.232,0.216,0.252,0.281,0.238,0.235,0.188
PC-14,0.114,0.106,0.0629,0.0768,0.0781,0.0569,0.0561,0.0604,0.061,0.0618,0.104,0.126,0.112,0.0879,0.095,0.0371,0.0372,0.0336,0.023,0.0224
RERF-LC-KJ,0.256,0.298,0.304,0.243,0.267,0.184,0.266,0.245,0.159,0.227,0.343,0.306,0.272,0.265,0.294,0.258,0.25,0.266,0.219,0.245
SK-LU-1,0.218,0.263,0.212,0.194,0.268,0.183,0.167,0.148,0.124,0.112,0.154,0.133,0.176,0.156,0.178,0.123,0.139,0.145,0.0978,0.114
SW 1573,0.143,0.115,0.151,0.117,0.087,0.138,0.0732,0.0916,0.0833,0.0479,0.0763,0.116,0.104,0.0921,0.0745,0.0654,0.0445,0.0863,0.0351,0.0432
UMC-11,0.175,0.173,0.141,0.141,0.101,0.16,0.138,0.119,0.116,0.106,0.207,0.194,0.199,0.184,0.176,0.231,0.186,0.153,0.138,0.146
